Like-named read-outs stand apart in the source and are kept apart here.
What was measured:
[1] = molecular target: T1, Aedes aegypti AChE (AeAChE) (Aedes aegypti, UniProt Q6A2E2); experiment: AChE inhibition, Ellman assay; type: biochemical
T1 construct: Homogenate enzymes were prepared from groups of ten non-blood fed adult female mosquitoes; from tissue; host or cells: whole adult female mosquitoes, supernatant of homogenate
From the text: (§1) In vitro biochemical assays utilized five acetylcholinesterase (AChE) enzymes. Recombinant human AChE (hAChE) was purchased from a commercial source (lyophilized powder, Sigma C1682, St. Louis, MO, USA). Homogenates to prepare Anopheles gambiae AChE (AgAChE) were obtained from the wild type G3 strain and the resistant AKRON strain (BEI Resources; http://www.beiresources.org/). AKRON mosquitoes (from Benin and donated by M. Akogbeto) have both knockdown resistance (kdr) to pyrethroids (L1014F sodium channel mutation) and the G119S AChE mutation (ace-1R), which confers resistance to carbamates, [15]. Both strains were cultured in the Emerging Pathogens Institute, University of Florida, Gainesville, FL, USA from eggs provided by the Center for Disease Control, Atlanta, GA, USA. Homogenates were also used to prepare Aedes aegypti AChE (AeAChE) from mosquitoes provided by the CMAVE, USDA-ARS, Gainesville, FL, USA; Musca domestica AChE (MdAChE) from flies cultured in the Department of Entomology and Nematology, Medical Entomology Laboratory, University of Florida, Gainesville, FL, USA); and Drosophila melanogaster AChE (DmAChE) from flies (Oregon-R strain) cultured in the Emerging Pathogens Institute, University of Florida, Gainesville, FL, USA. Homogenate enzymes were prepared from groups of ten non-blood fed adult female mosquitoes, five whole bodied Drosophila, or three Musca heads homogenized in 1 mL of ice-cold sodium phosphate buffer (0.1 M sodium phosphate, pH 7.8) with an electric motor driven glass tissue homogenizer. The homogenate was centrifuged at 5000×g using a Sorvall Fresco refrigerated centrifuge at 4 °C for 5 minutes. The supernatant was used as the enzyme source, and all enzyme preparations contained 0.3% (v/v) triton X-100 and 1 mg/ml BSA. Prior to use, the recombinant human enzyme was diluted 500-fold into sodium phosphate buffer containing triton X-100 and 1 mg/ml BSA.
(§2) Inhibition of AChE was determined using the Ellman assay and was based on the method outlined in Carlier et al.. Briefly, enzyme solution (10 µL) was added to each well of a 96-well micro assay plate, along with 20 µL of inhibitor in DMSO/saline suspension, and 150 µL of sodium phosphate buffer. Final concentration of DMSO was 0.1% in all incubations. The plate was incubated at 25 °C for ten minutes. Ellman assay reagents, acetylthiocholine iodide (0.4 mM, final concentration) and 5,5′-dithiobis-(2-nitro)benzoic acid (0.3 mM, final concentration), were prepared fresh and 20 µL was added to the enzyme to initiate the reaction.

[2] = molecular target: T2, Anopheles gambiae AChE (AgAChE), wild type G3 strain (Anopheles gambiae, UniProt Q869C3); experiment: AChE inhibition, Ellman assay; type: biochemical
T2 construct: Homogenate enzymes were prepared from groups of ten non-blood fed adult female mosquitoes; from tissue; host or cells: whole adult female mosquitoes, G3 strain, supernatant of homogenate
From the text: as §1, §2

[3] = molecular target: T3, Drosophila melanogaster AChE (DmAChE) (Drosophila melanogaster, UniProt P07140); experiment: AChE inhibition, Ellman assay; type: biochemical; conditions: mean, n = 3; read-out: IC50 (95% CI)
T3 construct: five whole bodied Drosophila, or three Musca heads homogenized; from tissue; host or cells: whole Drosophila (Oregon-R), supernatant of homogenate
From the text: as §1, §2

[4] = test system: housefly larval central nervous system; experiment: Neurophysiological recordings of CNS nerve discharge in housefly larvae; conditions: Musca domestica; transected CNS; value (95% CI); read-out: EC50, excitation of nerve firing
[5] = molecular target: T4, AKRON AgAChE (G119S AChE mutation) (Anopheles gambiae, UniProt Q869C3, G280S); experiment: AChE inhibition, Ellman assay; type: biochemical
T4 construct: Homogenate enzymes were prepared from groups of ten non-blood fed adult female mosquitoes; from tissue; host or cells: whole adult female mosquitoes, AKRON strain, supernatant of homogenate
From the text: as §1
as §2, with “reaction. Changes in absorbance were recorded by a DYNEX Triad spectrophotometer (DYNEX Technologies, Chantilly, VA, USA) at 405 nm. Enzyme concentrations used were within the linear range, therefore eliminating the need for protein quantification.” for “reaction.”

[6] = molecular target: T5, Recombinant human AChE (hAChE) (Homo sapiens, UniProt P22303); experiment: AChE inhibition, Ellman assay; type: biochemical; conditions: mean, n = 3; read-out: IC50 (95% CI)
T5 construct: purchased Sigma C1682
From the text: as §1
as §2, with “reaction. Changes in absorbance were recorded by a DYNEX Triad spectrophotometer (DYNEX Technologies, Chantilly, VA, USA) at 405 nm. Enzyme concentrations used were within the linear range, therefore eliminating the need for protein quantification.” for “reaction.”

[7] = molecular target: Musca domestica AChE (MdAChE) (Musca domestica, UniProt Q7YWJ9); experiment: AChE inhibition, Ellman assay; type: biochemical; conditions: mean, n = 3; read-out: IC50 (95% CI)
From the text: as §1
as §2, with “reaction. Changes in absorbance were recorded by a DYNEX Triad spectrophotometer (DYNEX Technologies, Chantilly, VA, USA) at 405 nm. Enzyme concentrations used were within the linear range, therefore eliminating the need for protein quantification.” for “reaction.”

acetylcholinesterase = experiment: AChE inhibition, Ellman assay, summary statements across enzymes; type: biochemical; conditions: concentrations up to 10 mM, all enzyme preparations
From the text: as §1, with “The supernatant was used as the enzyme source, and all enzyme preparations contained 0.3% (v/v) triton X-100 and 1 mg/ml BSA. Prior to use, the recombinant human enzyme was diluted 500-fold into sodium phosphate buffer containing triton X-100 and 1 mg/ml BSA.” left out
Inhibition of AChE was determined using the Ellman assay and was based on the method outlined in Carlier et al.. […] Changes in absorbance were recorded by a DYNEX Triad spectrophotometer (DYNEX Technologies, Chantilly, VA, USA) at 405 nm. Enzyme concentrations used were within the linear range, therefore eliminating the need for protein quantification.

[8] = test system: neuromuscular junction of third instar Musca domestica larvae; experiment: Neuromuscular junction recordings of evoked EPSP in housefly larvae; conditions: toluene at 5 mM
Procedure: Neuromuscular recordings of the evoked excitatory postsynaptic potential (EPSP) were performed on third instar housefly larvae, essentially as described previously. In short, the maggot was immobilized with pins, and the nervous and musculature systems were exposed. The preparation was then bathed in saline containing: 140 mM NaCl, 0.75 mM CaCl2, 5 mM KCl, 4 mM MgCl2, 5 mM NaHCO3, and 5 mM HEPES (pH = 7.25). The nerves were severed from the base of the CNS, which was removed, and a lateral nerve trunk innervating the longitudinal muscles was drawn into a suction electrode filled with saline. Stimuli were applied at 1 volt and of 0.2 sec duration to elicit a contraction from the longitudinal muscles. The stimulated muscle was then impaled with a recording glass capillary microelectrode filled with 1 M KCl to record effects on the evoked EPSP and membrane potential. Signals from all recordings were amplified and digitized with the use of the MacLab. Chemicals were applied to the preparation directly by hand pipetting 150 µL of solution into the bath volume of 150 µL.

rat Nav 1.4 channel = test system: rat Nav 1.4 channel; design: method as in ref 12 = [12]; 12 Scior T , Martinez-Morales E , Cruz S , Salinas-Stefanon E ( 2009 ) In silico modeling of toluene binding site in the pore of voltage-gate sodium channel . J Receptor Ligand Channel Res 2 : 1 – 9 .; conditions: in vitro ref 12; cited from earlier work
[9] = test system: housefly larval central nervous system; experiment: Neurophysiological recordings of CNS nerve discharge in housefly larvae; design: species or system Musca domestica; conditions: for EC50: Musca domestica
Procedure: Neurophysiological recordings were performed on the central and peripheral nervous systems of larval Musca domestica. Glass pipette electrodes were pulled from borosilicate glass capillaries on a P-1000 Flaming/Brown micropipette puller (Sutter Instrument, Novato CA, USA). For CNS recordings, it was first excised from the larvae and placed in a separate dish with physiological saline (200 µL) containing: 157 mM NaCl, 3 mM KCl, 2 mM CaCl2, and 4 mM HEPES, pH = 7.25. The CNS was manually transected posterior to the cerebral lobes to disrupt the blood-brain barrier and enhance chemical penetration. Any convenient peripheral nerve trunks were pulled into a recording suction electrode. Amplification and digitization of descending electrical activity originating from the CNS were converted on-line into a rate plot, expressed in Hz (MacLab analog to digital converter hardware and LabChart 7 software, ADInstruments, Colorado Springs, CO, USA). […] After a baseline was established, the CNS preparation was directly exposed to test compound by adding 200 µL of solution to the bath containing 200 µL of saline. The final concentration of solvent in the bath was 0.1% DMSO. Each concentration was recorded for 3–5 min prior to the addition of the next drug concentration. […] Each drug concentration was replicated 3-5 times.

firefly light organ = experiment: In vivo assay for effects on firefly light organ; design: species or system Photinus pyralis
Procedure: Adult firefly beetles (Photinus sp.) were collected locally (Nashville, TN) and housed in well-ventilated chambers with tree leaves. The animals had free access to 10% sucrose solution. Chemicals were dissolved in absolute ethanol and 1 µL was topically applied directly to the ventral light organ with the use of a manual pipettor. Prior to DEET application, the beetles were immobilized with molten parafilm and were mounted on corrugated cardboard for the duration of the study. Due to the time required for bioactivation of CDM, insects were treated with 1 µL of CDM and were released back into the holding chamber for three hours. After three hours, they were mounted in the previously described manner and monitored for activation of the lantern. Photographs were captured with a handheld camera (Canon PowerShot SX110 IS). Pictures were captured within five minutes, four hours, and 10 minutes post application for DEET, CDM, and propoxur, respectively. DEET- and propoxur-treated insects were monitored for at least 1 hour post exposure to ensure the response was not slow acting. The original photographs were cropped and background shadows were enhanced to increase detail of the insect using Adobe Photoshop PS5 (Adobe Systems, San Jose, CA, USA). The color or brightness of the light organ was not manipulated in any way during post-processing of the image.

[10] = test system: octopamine receptors of Sf21 cells; experiment: Calcium fluorescence assay in Sf21 cells; type: cell-based
Procedure: The Sf21 insect cell line was obtained from a commercial supplier (Invitrogen, Carlsbad, CA, USA) and maintained in log phase culture in Trichoplusia ni Medium-Formulation Hink (TNM-FH) from Sigma-Aldrich (St. Louis, MO, USA), supplemented with 10% fetal bovine serum and 100 U/ml penicillin and streptomycin (Sigma-Aldrich). Cells were cultured in a non-humidified environment and maintained at 27°C. Sf21 cells were passaged every 3–5 days according to manufacturer's instructions, and maintained for about 30 passes before being replaced by fresh cells.
Sf21 cells were plated into 96-well black-wall, clear bottom plates 24 h before calcium fluorescence assay. […] The octopamine receptor antagonist phentolamine (100 µM) was co-incubated with cells for 1 h before drug challenge. Phentolamine, octopamine, and DEET were dissolved in water, while propoxur was dissolved in 100% DMSO to make a stock solution, and in the assay, DMSO was kept to 0.1%. The experiment was repeated in triplicate with different plates of cells to obtain means and SEMs for each experimental condition.

[11] = mean, n = 3, read-out: IC50 (95% CI)

Work on `Cc1ccccc1` [Toluene, toluene] yielded an IC50 [1] of over 10 mM, an IC50 [2] of over 10 mM and an IC50 [3] of over 10 mM. For the same compound, the EC50 [4] was 1 mM, the IC50 [5] was over 10 mM and the IC50 [6] was over 10 mM. For the same compound, the IC50 [7] was over 10 mM, the “AChE inhibition in words” value (acetylcholinesterase) was “inactive” and the “effect on evoked EPSP in words” value [8] was “excitatory”. For the same compound, the concentration blocking channels (rat Nav 1.4 channel) was 3 mM.
In the case of `Nc1ccncc1` [4-AP, 4-aminopyridine], the “increase of maximal firing frequency above control levels” value [9] is reported as 6 fold and the EC50 ([9]; Fig. 3D, firing declined at concentrations >1 mM, read-out: EC50, neuroexcitation) is reported as 0.013 mM.
With `Cc1cc(Cl)ccc1N=CN(C)C` [CDM, chlordimeform] the lantern illumination (firefly light organ; 1 µg topically on light organ) was “incomplete activation of the light organ”, the “duration of glow of the entire lantern” value (firefly light organ; 5 µg) was “approximately four” and the lantern illumination (firefly light organ; 5 µg topically on light organ) was “bright, constant glow of the entire lantern”.
For `Cc1ccc(N(CC2=NCCN2)c2cccc(O)c2)cc1` [phentolamine], the “effect on DEET- and octopamine-mediated activation of calcium fluorescence” value ([10]; 100 µM phentolamine pre-exposure 1 h) was “abolished”, the “block of DEET-mediated neuroexcitation” value ([9]; 100 µM phentolamine, DEET up to 500 µM) was “completely blocked” and the “block of octopamine-mediated neuroexcitation” value ([9]; 100 µM phentolamine, octopamine up to 3 mM) was “completely blocked”. For the same compound, the “decline of maximal firing compared to propoxur alone” value ([9]; 100 µM phentolamine, propoxur 1 µM, not statistically significant) was 21%, the “effect on neuroexcitation by propoxur” value ([9]; 100 µM phentolamine, propoxur below 1 µM) was “no effect” and the “effect on 4-AP mediated neuroexcitation” value ([9]; phentolamine) was “no effect”.
For `CCN(CC)CC(=O)Nc1c(C)cccc1C` [Lidocaine, lidocaine], the IC50 [1, 11] was over 10 mM, the IC50 [2, 11] was over 10 mM and the IC50 [3] was 9.6 mM. For the same compound, the IC50 [5] was over 10 mM, the IC50 [7] was 4.9 mM and the “effect on evoked EPSP in words” value [8] was “antagonist”.
With `NCC(O)c1ccc(O)cc1` (centres unmarked) [Octopamine, octopamine] the “increase in calcium fluorescence” value ([10]; 100 µM, over control cells) was “ca. 50%” and the EC50 ([9]; Fig. 3B, read-out: excitatory EC50) was 0.11 mM.

From article PMC4125160, “Neurotoxicity and Mode of Action of N, N-Diethyl-Meta-Toluamide (DEET)” (PLoS ONE, 2014)
